# Reference: patent US9737535B2, “Methods for treating cancer using TOR kinase inhibitor combination therapy comprising administering substituted pyrazino[2,3-b]pyrazines” (Signal Pharmaceuticals, LLC, priority 2014, dated 2017)
# Legend:
# Experiment in all cases: Anti-proliferation assay (ATPLite), Chalice synergy score
# Assay type in all cases: cell-based
# HCC-1187 = test system: HCC-1187; set-up: scale not given here; settings: Compound 1 in combination with the named second active agent, 72 h, mean of n = 3 experiments in triplicate
# Description: (§1) Cells were thawed from a liquid nitrogen preserved state.
# (§2) The calculation for synergy score is provided below.
# (§3) If T≧V0:100*[1−(T−V0)/(V−V0)]
# HCC-1500 = test system: HCC-1500; set-up: scale not given here; settings: Compound 1 in combination with the named second active agent, 72 h, mean of n = 3 experiments in triplicate
# Description: as §1, §2, §3
# BT-20 = test system: BT-20; set-up: scale not given here; settings: Compound 1 in combination with the named second active agent, 72 h, mean of n = 3 experiments in triplicate
# Description: as §1, §2, §3
# HCC70 = settings: Compound 1 in combination with second active agent; HCC-70; mean self-cross + 2σ threshold 3.45
# Description: as §1, §2, §3
# MDA-MB-468 = settings: Compound 1 in combination with second active agent, mean self-cross + 2σ threshold 4.66
# Description: as §1, §2, §3
# MCF7 = settings: Compound 1 in combination with second active agent, mean self-cross + 2σ threshold 3.07
# Description: as §1, §2, §3
# HCC-1937 = settings: Compound 1 in combination with the named second active agent, 72 h, mean of n = 3 experiments in triplicate
# Description: as §1, §2, §3
# BT-474 = settings: Compound 1 in combination with the named second active agent, 72 h, mean of n = 3 experiments in triplicate
# Description: as §1, §2, §3
# HCC-1806 = settings: Compound 1 in combination with the named second active agent, 72 h, mean of n = 3 experiments in triplicate
# Description: as §1, §2, §3
# Hs-578-T = settings: Compound 1 in combination with second active agent, mean self-cross + 2σ threshold 4.09
# Description: as §1, §2, §3
# MDA-MB-231 = settings: Compound 1 in combination with second active agent, mean self-cross + 2σ threshold 2.61
# Description: as §1, §2, §3
# MDA-MB-436 = settings: Compound 1 in combination with second active agent, mean self-cross + 2σ threshold 1.91
# Description: as §1, §2, §3
# BT-549 = settings: Compound 1 in combination with the named second active agent, 72 h, mean of n = 3 experiments in triplicate
# Description: as §1, §2, §3
# MDA-MB-157 = settings: Compound 1 in combination with second active agent, mean self-cross + 2σ threshold 4.68
# Description: as §1, §2, §3
# HCC-1428 = settings: Compound 1 in combination with the named second active agent, 72 h, mean of n = 3 experiments in triplicate
# Description: as §1, §2, §3
structure (smiles),measurement,setting,value
CC(C)C[C@H](NC(=O)CNC(=O)c1cc(Cl)ccc1Cl)B1OC(=O)C(CC(=O)O)(CC(=O)O)O1 [MLN9708],Synergy score,HCC-1187,1.79
same,Synergy score,HCC-1500,2.26
same,Synergy score,BT-20,3.67
same,Synergy score,HCC70,2.16
same,Synergy score,MDA-MB-468,3.00
same,Synergy score,MCF7,0.39
same,Synergy score,HCC-1937,3.84
same,Synergy score,BT-474,0.75
same,Synergy score,HCC-1806,4.31
same,Synergy score,Hs-578-T,1.68
same,Synergy score,MDA-MB-231,2.27
same,Synergy score,MDA-MB-436,2.77
same,Synergy score,BT-549,4.47
same,Synergy score,MDA-MB-157,2.91
same,Synergy score,HCC-1428,2.59
O=C(NOC[C@H](O)CO)c1ccc(F)c(F)c1Nc1ccc(I)cc1F [PD0325901],Synergy score,HCC-1187,7.89
same,Synergy score,HCC-1500,3.58
same,Synergy score,BT-20,6.34
same,Synergy score,HCC70,14.70
same,Synergy score,MDA-MB-468,5.84
same,Synergy score,MCF7,4.62
same,Synergy score,HCC-1937,3.54
same,Synergy score,BT-474,1.50
same,Synergy score,HCC-1806,3.78
same,Synergy score,Hs-578-T,3.88
same,Synergy score,MDA-MB-231,9.62
same,Synergy score,MDA-MB-436,4.20
same,Synergy score,BT-549,1.62
same,Synergy score,MDA-MB-157,8.05
same,Synergy score,HCC-1428,4.69
OCCn1cc(-c2cnc3nnn(Cc4ccc5ncccc5c4)c3n2)cn1 [PF-04217903],Synergy score,HCC-1187,0.17
same,Synergy score,HCC-1500,0.11
same,Synergy score,BT-20,0.05
same,Synergy score,HCC70,0.33
same,Synergy score,MDA-MB-468,1.09
same,Synergy score,MCF7,0.20
same,Synergy score,HCC-1937,0.44
same,Synergy score,BT-474,0.57
same,Synergy score,HCC-1806,0.39
same,Synergy score,Hs-578-T,1.12
same,Synergy score,MDA-MB-231,0.53
same,Synergy score,MDA-MB-436,0.08
same,Synergy score,BT-549,0.04
same,Synergy score,MDA-MB-157,0.75
same,Synergy score,HCC-1428,0.31
COc1cc2c(NC3CCN(C4CCCCC4)CC3)nc(N3CCCN(C(C)C)CC3)nc2cc1OCCCN1CCCCC1 [UNC 0646],Synergy score,HCC-1187,0.22
same,Synergy score,HCC-1500,1.11
same,Synergy score,BT-20,2.59
same,Synergy score,HCC70,2.03
same,Synergy score,MDA-MB-468,2.08
same,Synergy score,MCF7,3.27
same,Synergy score,HCC-1937,0.54
same,Synergy score,BT-474,1.13
same,Synergy score,HCC-1806,0.53
same,Synergy score,Hs-578-T,2.20
same,Synergy score,MDA-MB-231,0.49
same,Synergy score,MDA-MB-436,0.66
same,Synergy score,BT-549,0.91
same,Synergy score,MDA-MB-157,1.05
same,Synergy score,HCC-1428,1.66
COc1ccc(Cl)c(Nc2nc3ccccc3nc2NS(=O)(=O)c2cccc(NC(=O)C(C)(C)N)c2)c1 [XL147],Synergy score,HCC-1187,5.02
same,Synergy score,HCC-1500,2.87
same,Synergy score,BT-20,0.23
same,Synergy score,HCC70,0.09
same,Synergy score,MDA-MB-468,0.34
same,Synergy score,MCF7,0.18
same,Synergy score,HCC-1937,0.64
same,Synergy score,BT-474,1.81
same,Synergy score,HCC-1806,1.06
same,Synergy score,Hs-578-T,0.77
same,Synergy score,MDA-MB-231,0.57
same,Synergy score,MDA-MB-436,0.67
same,Synergy score,BT-549,0.18
same,Synergy score,MDA-MB-157,1.99
same,Synergy score,HCC-1428,0.43
COCCn1c2c([n+](Cc3cnccn3)c1C)C(=O)c1ccccc1C2=O [YM155],Synergy score,HCC-1187,4.94
same,Synergy score,HCC-1500,2.81
same,Synergy score,BT-20,2.67
same,Synergy score,HCC70,4.01
same,Synergy score,MDA-MB-468,0.24
same,Synergy score,MCF7,1.77
same,Synergy score,HCC-1937,5.70
same,Synergy score,BT-474,4.04
same,Synergy score,HCC-1806,5.52
same,Synergy score,Hs-578-T,3.36
same,Synergy score,MDA-MB-231,2.54
same,Synergy score,MDA-MB-436,2.79
same,Synergy score,BT-549,6.80
same,Synergy score,MDA-MB-157,5.42
same,Synergy score,HCC-1428,1.16
